How the values were obtained:
[1] = biological target: Homoisocitrate dehydrogenase, mitochondrial (Saccharomyces cerevisiae S288c, UniProt P40495); assay: Inhibition of Saccharomyces cerevisiae homoisocitrate dehydrogenase expressed in Escherichia coli Rosetta cells above 10 mM
[2] = Inhibition of Deinococcus radiodurans homoisocitrate dehydrogenase

Sequence of Homoisocitrate dehydrogenase, mitochondrial (P40495 whole entry): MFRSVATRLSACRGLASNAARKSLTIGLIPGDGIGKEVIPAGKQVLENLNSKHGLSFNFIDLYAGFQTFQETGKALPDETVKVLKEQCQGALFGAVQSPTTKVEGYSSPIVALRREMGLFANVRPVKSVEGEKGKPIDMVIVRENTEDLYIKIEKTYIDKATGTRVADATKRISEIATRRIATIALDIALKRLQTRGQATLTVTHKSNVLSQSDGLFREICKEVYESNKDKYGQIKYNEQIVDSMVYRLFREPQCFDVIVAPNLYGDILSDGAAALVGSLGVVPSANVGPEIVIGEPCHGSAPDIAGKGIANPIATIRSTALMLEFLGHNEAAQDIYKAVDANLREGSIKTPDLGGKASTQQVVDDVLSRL

Compound | Ki [1] [µM] | Ki [2] [µM]
O=C(O)CC/C=C(\C(=O)O)[C@@H](O)C(=O)O | 72 | 260
O=C(O)CC/C=C(/C(=O)O)[C@@H](O)C(=O)O | 790 | 3100
C=C[C@H](C(=O)O)[C@@H](O)C(=O)O |  | 88

Results, then the compound that gave them:

Ki [1] [µM] | Ki [2] [µM] | Compound
510 | 15300 | O=C(O)/C(=C\CCO)[C@@H](O)C(=O)O
1400 | 5200 | O=C(O)/C(=C/CCO)[C@@H](O)C(=O)O
